One assay has as its target B-Raf (Homo sapiens, UniProt P15056). Kind of assay: B-Raf Accelerated MEK ATPase assay (BRAMA). Type of assay: biochemical. Conditions: BRAMA enzyme assay; class by pIC50; read-out: B-Raf Activity. A digest of the protocol: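 B-Raf activity read as intrinsic MEK ATPase: catalytic activated RAF with non-phosphorylated MEK drives ADP formation, coupled through pyruvate kinase and lactate dehydrogenase to NADH oxidation, independent of ERK phosphorylation.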

The target in a further assay is EGFR (Homo sapiens, UniProt P00533). Description: EGFR kinase autophosphorylation assay (peptide phosphorylation, HTRF). In kind it is biochemical. Conditions: 0.8 nM EGFR, class by pIC50. The protocol: (§1) A selection of compounds of the present invention were tested for inhibitory activity against EGFR and ErbB2 kinases in autophosphorylation assays.
(§2) The method measures the ability of the isolated enzyme to catalyse the transfer of the gamma-phosphate from ATP onto the tyrosine residue of a biotinylated synthetic peptide referenced “Peptide C” in Brignola, P. S., et al, (2002) J. Biol. Chem. 277(2):1576-1585. The extent of tyrosine phosphorylation was measured using an anti-phosphotyrosine antibody, and quantified by homogenous time-resolved fluorescence (HTRF).
(§3) Reactions were performed in black 384-well polystyrene flat-bottom plates in a final volume of 20 ul. Assays were performed by adding 10 μl of each of the following solutions, substrate Mix and enzyme mix: The Substrate mix contained 100 mM 3-[N-morpholino]propanesulfonic acid (MOPS) (pH 7.5), 2 mM MnCl2, 20 μM ATP, 0.01% Tween-20, 0.1 mg/mL (BSA), 0.8 uM peptide substrate, and 1 mM dithiothreitol. The enzyme mix contained 100 mM MOPS (pH7.5); 0.01% Tween-20; 0.1 mg/mL BSA, and either 0.8 nM EGFR, 10 nM ErbB2, or 1 nM ErbB4
(§4) The enzyme mix was added to the compound plates and the plates were incubated at 20° C. for 1 hour. The reactions were allowed to proceed for 90 minutes at 20° C. The reactions were then terminated by the addition of 20 μl 100 mM EDTA to each well. 40 μl/well of HTRF detection mix were added to the assay plates. The final concentrations of the detection reagents were: 100 mM HEPES (pH7.5), 0.1 mg/mL BSA, 15 nM streptavidin-labeled allophycocyanin (PerkinElmer), and 1 nM europium-labeled anti-phosphotyrosine antibody (PerkinElmer). Assay plates were left unsealed and were counted in a Wallac Multilabel Counter 1420 (PerkinElmer).
(§5) Compounds under analysis were dissolved in Me2SO to 1.0 mM and serially diluted 1 to 3 with Me2SO through twelve dilutions. 1 μl of each concentration was transferred to the corresponding well of an assay plate. This creates a final compound concentration range from 0.00027 to 47.6 μM.
(§6) The data for dose responses were plotted as % Inhibition calculated with the data reduction formula 100*(1−(U1−C2)/(C1−C2)) versus concentration of compound where U is the unknown value, C1 is the average control value obtained for 4.76% DMSO, and C2 is the average control value obtained for 0.035 M EDTA. Data were fitted with a curve described by:
(§7) where Vmax is the upper asymptote, Y2 is the Y intercept, and K is the IC50. The results for each compound were recorded as pIC50s, calculated as follows: […]
(§8) In the following table: • “+” indicates no pIC50 measurement greater than 6 against EGFR or ErbB2, • “++” indicates at least one pIC50 measurement greater than 6 against EGFR or ErbB2 but no measurement greater than pIC50 of 7; and • “+++” indicates at least one pIC50 measurement of greater than 7 against EGFR or ErbB2.
A general note: In TR-FRET formats the signal depends on donor and acceptor labels being close together.

A further assay addresses ErbB2 (Homo sapiens, UniProt P04626). Description: ErbB2 kinase autophosphorylation assay (peptide phosphorylation, HTRF). Type of assay: biochemical. Conditions: 10 nM ErbB2, HTRF; class by pIC50. How it is done: as §1, §2, §3, §4, §5, §6, §7, §8
In the next assay the test system is A375P tumor cells. Kind of assay: Cell growth inhibition assay (CellTiter-Glo), A375P.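 Also: total ATP luminescence used as proxy for cell number, serial threefold compound dilutions at 0.2% DMSO, growth inhibition expressed versus DMSO vehicle-treated wells.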 Conditions: Homo sapiens, 72 h, read-out: Activity in A375P Tumor Cells. In general terms: Cellular ATP, detected with luciferase, serves as a proxy for viable cell number.
The next assay deals with HT-29 tumor cells. Description: Cell growth inhibition assay (CellTiter-Glo), HT-29.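 Also: ATP content read by luminescence as proxy for cell number, growth inhibition versus DMSO vehicle wells, 0.2% DMSO final, nine serial threefold compound dilutions.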 Conditions: Homo sapiens, HT-29, 72 h, read-out: Activity in HT-29 Tumor Cells.
Another assay deals with Colo205 tumor cells. Description: Cell growth inhibition assay (CellTiter-Glo), Colo205.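 Also: growth measured via total ATP luminescence (CellTiter-Glo) as a proxy for cell number, inhibition expressed against DMSO-treated control wells, 3-day exposure at 0.2% final DMSO.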 Conditions: Homo sapiens, COLO 205, 72 h, read-out: Activity in Colo205 Tumor Cells.
For another assay, the system named is SK-MEL-3 tumor cells. Kind of assay: Cell growth inhibition assay (CellTiter-Glo), SK-MEL-3.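 Also: human melanoma cells grown with compound for 3 days in 0.2% DMSO, total ATP read by luminescence as proxy for cell number, growth inhibition versus DMSO-treated wells.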 Conditions: Homo sapiens, SK-MEL3, 72 h, read-out: Activity in SK-MEL-3 Tumor Cells.
The subject of a further assay is SK-MEL-28 tumor cells. Kind of assay: Cell growth inhibition assay (CellTiter-Glo), SK-MEL-28.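 Also: luminescent total ATP as a proxy for cell number, threefold serial dilutions at 0.2% DMSO, percent growth inhibition versus DMSO vehicle control wells.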 Conditions: Homo sapiens, SK-MEL-28, 72 h, read-out: Activity in SK-MEL-28 Tumor Cells.

12 compounds from patent US20110190280A1, “Thiazole And Oxazole Kinase Inhibitors” (priority 2007, published 2011) can be followed below.

Each structure is given as a SMILES string. pIC50: −log10 of the molar value.

Sequence of EGFR (P00533 25-1210): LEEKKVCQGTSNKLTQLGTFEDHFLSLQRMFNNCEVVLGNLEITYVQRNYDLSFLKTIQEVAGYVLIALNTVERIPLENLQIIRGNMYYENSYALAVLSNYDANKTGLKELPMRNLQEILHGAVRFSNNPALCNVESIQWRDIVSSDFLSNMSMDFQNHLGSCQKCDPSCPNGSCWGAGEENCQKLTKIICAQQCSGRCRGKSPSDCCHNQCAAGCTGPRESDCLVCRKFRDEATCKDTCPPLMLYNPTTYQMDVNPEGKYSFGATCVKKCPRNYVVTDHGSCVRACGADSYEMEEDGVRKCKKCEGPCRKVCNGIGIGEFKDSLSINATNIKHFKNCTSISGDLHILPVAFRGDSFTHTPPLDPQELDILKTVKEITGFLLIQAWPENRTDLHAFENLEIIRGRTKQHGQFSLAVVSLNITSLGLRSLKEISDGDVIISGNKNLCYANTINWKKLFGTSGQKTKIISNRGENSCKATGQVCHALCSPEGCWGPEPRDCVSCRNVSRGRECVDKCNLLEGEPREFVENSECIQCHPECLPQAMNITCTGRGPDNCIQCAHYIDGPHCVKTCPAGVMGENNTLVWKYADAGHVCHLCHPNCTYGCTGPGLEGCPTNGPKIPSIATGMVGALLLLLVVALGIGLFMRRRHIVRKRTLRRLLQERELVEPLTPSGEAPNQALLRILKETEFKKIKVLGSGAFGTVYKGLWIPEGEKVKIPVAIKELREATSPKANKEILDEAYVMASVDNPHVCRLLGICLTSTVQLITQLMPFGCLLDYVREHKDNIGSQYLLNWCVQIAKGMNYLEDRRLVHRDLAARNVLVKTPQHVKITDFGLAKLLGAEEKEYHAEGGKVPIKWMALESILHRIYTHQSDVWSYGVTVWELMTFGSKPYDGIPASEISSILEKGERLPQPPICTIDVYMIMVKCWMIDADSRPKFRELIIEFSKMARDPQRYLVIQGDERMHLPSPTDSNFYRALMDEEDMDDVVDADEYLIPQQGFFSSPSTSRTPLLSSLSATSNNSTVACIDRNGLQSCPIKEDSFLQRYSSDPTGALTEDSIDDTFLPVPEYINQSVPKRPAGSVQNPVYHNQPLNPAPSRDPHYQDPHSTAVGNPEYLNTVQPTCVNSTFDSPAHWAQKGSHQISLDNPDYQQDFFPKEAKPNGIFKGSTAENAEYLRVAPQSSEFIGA
Sequence of B-Raf (P15056 whole entry): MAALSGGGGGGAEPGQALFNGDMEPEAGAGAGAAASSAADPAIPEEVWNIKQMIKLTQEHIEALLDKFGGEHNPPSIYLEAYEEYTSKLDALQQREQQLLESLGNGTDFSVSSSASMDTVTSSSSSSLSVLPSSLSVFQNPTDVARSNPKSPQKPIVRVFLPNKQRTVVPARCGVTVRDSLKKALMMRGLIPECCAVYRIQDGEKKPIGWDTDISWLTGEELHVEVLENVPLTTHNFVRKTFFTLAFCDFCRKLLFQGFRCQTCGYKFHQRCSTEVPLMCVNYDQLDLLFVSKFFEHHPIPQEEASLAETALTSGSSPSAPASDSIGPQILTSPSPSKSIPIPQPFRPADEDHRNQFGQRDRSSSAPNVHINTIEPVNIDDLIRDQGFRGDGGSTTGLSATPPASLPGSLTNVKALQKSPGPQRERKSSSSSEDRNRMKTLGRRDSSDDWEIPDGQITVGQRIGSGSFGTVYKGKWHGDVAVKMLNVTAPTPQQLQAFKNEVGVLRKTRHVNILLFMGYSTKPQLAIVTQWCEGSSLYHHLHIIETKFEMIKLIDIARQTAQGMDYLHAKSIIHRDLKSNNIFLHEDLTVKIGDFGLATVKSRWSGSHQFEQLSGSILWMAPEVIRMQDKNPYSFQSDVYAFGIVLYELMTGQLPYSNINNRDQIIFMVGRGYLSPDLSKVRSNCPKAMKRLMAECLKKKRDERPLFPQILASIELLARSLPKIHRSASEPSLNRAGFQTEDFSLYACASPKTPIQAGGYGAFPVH
Sequence of ErbB2 (P04626 23-1255): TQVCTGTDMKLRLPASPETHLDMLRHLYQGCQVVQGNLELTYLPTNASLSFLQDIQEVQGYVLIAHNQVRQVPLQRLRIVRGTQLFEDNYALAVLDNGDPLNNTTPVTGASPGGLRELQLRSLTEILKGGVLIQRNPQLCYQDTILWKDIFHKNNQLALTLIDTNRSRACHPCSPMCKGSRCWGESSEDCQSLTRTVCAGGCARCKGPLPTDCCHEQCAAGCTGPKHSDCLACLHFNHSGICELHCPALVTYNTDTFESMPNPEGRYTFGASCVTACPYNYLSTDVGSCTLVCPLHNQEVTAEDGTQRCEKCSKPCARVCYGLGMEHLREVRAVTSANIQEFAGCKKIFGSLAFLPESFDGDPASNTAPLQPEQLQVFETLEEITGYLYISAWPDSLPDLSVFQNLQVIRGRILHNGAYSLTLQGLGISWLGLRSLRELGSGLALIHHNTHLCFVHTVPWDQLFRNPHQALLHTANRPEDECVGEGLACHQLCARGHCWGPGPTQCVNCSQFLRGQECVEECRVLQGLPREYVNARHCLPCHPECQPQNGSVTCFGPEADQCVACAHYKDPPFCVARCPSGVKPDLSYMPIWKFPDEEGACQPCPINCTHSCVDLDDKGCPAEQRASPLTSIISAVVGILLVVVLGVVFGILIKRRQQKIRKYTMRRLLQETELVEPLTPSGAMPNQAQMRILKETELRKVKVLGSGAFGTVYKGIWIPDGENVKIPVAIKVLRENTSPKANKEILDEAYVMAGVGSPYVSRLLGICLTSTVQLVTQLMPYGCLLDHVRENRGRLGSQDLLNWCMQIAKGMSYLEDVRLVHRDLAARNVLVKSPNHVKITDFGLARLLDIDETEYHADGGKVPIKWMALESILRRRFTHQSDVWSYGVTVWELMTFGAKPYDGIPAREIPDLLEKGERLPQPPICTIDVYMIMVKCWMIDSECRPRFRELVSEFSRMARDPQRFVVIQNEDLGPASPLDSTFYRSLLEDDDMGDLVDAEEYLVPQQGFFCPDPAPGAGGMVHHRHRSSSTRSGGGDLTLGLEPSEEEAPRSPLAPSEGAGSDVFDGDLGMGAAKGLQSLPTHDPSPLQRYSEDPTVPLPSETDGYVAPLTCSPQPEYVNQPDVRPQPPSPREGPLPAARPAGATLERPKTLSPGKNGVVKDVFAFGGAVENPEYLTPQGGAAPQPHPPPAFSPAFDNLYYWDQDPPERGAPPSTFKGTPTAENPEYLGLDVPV
Procedure for Colo205 tumor cells: (§9) Cell Growth Inhibition Assays Human colon tumor cells (Colo205) were cultured in RPMI (Mediatech 50-020-PB) containing 10% FBS and 1% penicillin-streptomycin. […] Human melanoma cancer cells (A375-F11S) were cultured in RPMI (Mediatech 50-020-PB) containing 10% FBS, 1% sodium pyruvate, and 1% penicillin-streptomycin. Human colon cancer cells (HT-29) were cultured in high glucose DMEM (Mediatech 50-013-PB) containing 10% FBS and 1% penicillin-streptomycin. Human melanoma cancer cells (SK-MEL-3) were cultured in McCoy's 5A (50-025-PB) containing 15% FBS, and 1% penicillin-streptomycin. All cell lines were maintained at 37° C. in a humidified 5% CO2, 95% air incubator.
(§10) The next day, compounds were diluted as follows: For 96-well assays, 13.5 μl of compound in DMSO were diluted using nine (9) serial 1:3 dilutions of 4.5 μl in 9 μl of DMSO. Medium (270 μl/well of RPMI with 10% FBS and 1% penicillin-streptomycin) was added to the plates. Aliquots (7 μl) were added to cells in the final assay giving a final DMSO concentration of 0.2%. For 384-well assays, 15 μl of compound in DMSO were diluted using nine (9) serial 1:3 dilutions of 5 μl in 10 μl of DMSO, followed by a further dilution of 5 μl of compound with 95 μl of medium, of which 2 μl are added to cells in the final assay giving a final DMSO concentration of 0.2%. Cells were incubated at 37° C., 5% CO2 for 3 days.
(§11) Total ATP was measured (as a surrogate estimate of cell number) using CellTiter-Glo® (Promega G7571) reagent. Briefly, plates were removed from the incubator and allowed to equilibrate to room temperature for 30 minutes. CellTiter-Glo® (25 μl or 55 μl for 384-well or 96-well assays, respectively) reagent was added to each well and plates were shaken on an orbital plate shaker for 2 minutes. Plates were incubated without shaking for a further 30 minutes and read on an LJL Analyst GT reader in luminometer mode with an integration time of 0.5 seconds per well. Percent inhibition of cell growth was calculated relative to DMSO vehicle-treated control wells.
Procedure for HT-29 tumor cells: as §9, §10, §11
Procedure for SK-MEL-3 tumor cells: as §9, §10, §11

For the compound `CCNc1nc(-c2cccc(OC)c2)c(-c2ccnc(Nc3ccc(OCCN(C)C)c(C)c3)n2)s1` [Example 77, N-(4-{[2-(Dimethylamino)ethyl]oxy}-3-methylphenyl)-4-{2-(ethylamino)-4-[3-(methyloxy)phenyl]-1,3-thiazol-5-yl}-2-pyrimidinamine], the pIC50 was over 7.00 on B-Raf; over 7.00 at EGFR; over 7.00 at ErbB2; over 6.30 in the assay with A375P tumor cells; over 6.30 with HT-29 tumor cells; over 6.30 in the assay on Colo205 tumor cells. Moreover, the pIC50 is over 6.30 with SK-MEL-3 tumor cells and 5.30 to 6.30 in the assay with SK-MEL-28 tumor cells.

With `CCNc1nc(-c2cc(C)cc(OC)c2)c(-c2ccnc(Nc3ccc4c(c3)CCN4C(C)=O)n2)s1` [Example 30, 1-Acetyl-N-(4-{2-(ethylamino)-4-[3-methyl-5-(methyloxy)phenyl]-1,3-thiazol-5-yl}-2-pyrimidinyl)-2,3-dihydro-1H-indol-5-amine], the pIC50 on B-Raf was over 7.00; against EGFR, under 6.00; on ErbB2 it was under 6.00; with A375P tumor cells, over 6.30; in the assay on HT-29 tumor cells, over 6.30; in the assay with Colo205 tumor cells, over 6.30. Besides, the pIC50 with SK-MEL-3 tumor cells and with SK-MEL-28 tumor cells was over 6.30 each time.

`CCNc1nc(-c2cc(OC)cc(OC)c2)c(-c2ccnc(Nc3ccc(N4CCOCC4)c(F)c3)n2)o1` [Example 118]: the pIC50 on B-Raf is over 7.00; against EGFR, under 6.00; against ErbB2, under 6.00; in the assay with A375P tumor cells, 5.30 to 6.30; in the assay with HT-29 tumor cells it was 5.30 to 6.30; in the assay with Colo205 tumor cells, 5.30 to 6.30. For the same compound, the pIC50 in the assay on SK-MEL-3 tumor cells and in the assay on SK-MEL-28 tumor cells was 5.30 to 6.30 throughout.

As to `CCNc1nc(-c2cccc(Cl)c2)c(-c2ccnc(Nc3ccc(OCCN(C)C)c(Cl)c3)n2)s1` [Example 46, N-(3-Chloro-4-{[2-(dimethylamino)ethyl]oxy}phenyl)-4-[4-(3-chlorophenyl)-2-(ethylamino)-1,3-thiazol-5-yl]-2-pyrimidinamine], the pIC50 is over 7.00 at B-Raf; over 7.00 against EGFR; over 7.00 on ErbB2; over 6.30 in the assay on A375P tumor cells; over 6.30 in the assay on HT-29 tumor cells; over 6.30 in the assay on Colo205 tumor cells. Further, the pIC50 in the assay with SK-MEL-3 tumor cells and with SK-MEL-28 tumor cells was over 6.30 in each case.

Turning to `COc1cc(C)cc(-c2nc(CNS(C)(=O)=O)sc2-c2ccnc(Nc3ccc(N4CCN(C(C)=O)CC4)nc3)n2)c1` [Example 64, N-({5-(2-{[6-(4-Acetyl-1-piperazinyl)-3-pyridinyl]amino}-4-pyrimidinyl)-4-[3-methyl-5-(methyloxy)phenyl]-1,3-thiazol-2-yl}methyl)methanesulfonamide], the pIC50 on B-Raf was over 7.00; at EGFR it was under 6.00; against ErbB2, under 6.00; with A375P tumor cells it was over 6.30; with HT-29 tumor cells, over 6.30; in the assay with Colo205 tumor cells, over 6.30. Further, the pIC50 in the assay on SK-MEL-3 tumor cells and with SK-MEL-28 tumor cells was over 6.30 each time.

Take `CCNc1nc(-c2cc(OC)cc(OC)c2)c(-c2ccnc(Nc3ccc(OC4CCN(CCS(C)(=O)=O)CC4)c(F)c3)n2)s1` [Example 10, 4-[4-[3,5-Bis(methyloxy)phenyl]-2-(ethylamino)-1,3-thiazol-5-yl]-N-[3-fluoro-4-({1-[2-(methylsulfonyl)ethyl]-4-piperidinyl}oxy)phenyl]-2-pyrimidinamine]: the pIC50 at B-Raf was over 7.00; against EGFR, under 6.00; against ErbB2, under 6.00; in the assay with A375P tumor cells, over 6.30; with HT-29 tumor cells, over 6.30; in the assay with Colo205 tumor cells it was over 6.30. The pIC50 in the assay with SK-MEL-3 tumor cells and with SK-MEL-28 tumor cells was over 6.30 throughout.

In the case of `CCNc1nc(-c2cc(C)cc(OC)c2)c(-c2ccnc(Nc3ccc(N4CCN(CCF)CC4)c(F)c3)n2)s1` [Example 29, 4-{2-(Ethylamino)-4-[3-methyl-5-(methyloxy)phenyl]-1,3-thiazol-5-yl}-N-{3-fluoro-4-[4-(2-fluoroethyl)-1-piperazinyl]phenyl}-2-pyrimidinamine], the pIC50 at B-Raf is over 7.00; against EGFR, under 6.00; against ErbB2, under 6.00; in the assay with A375P tumor cells, over 6.30; in the assay with HT-29 tumor cells, over 6.30; with Colo205 tumor cells, over 6.30. Besides, the pIC50 with SK-MEL-3 tumor cells and with SK-MEL-28 tumor cells was over 6.30 each time.

Take `CCc1nc(-c2cc(C)cc(OC)c2)c(-c2ccnc(Nc3ccc(OCCO)c(C#N)c3)n2)s1` [Example 107]: the pIC50 was over 7.00 at B-Raf; under 6.00 against EGFR; under 6.00 against ErbB2; 5.30 to 6.30 with A375P tumor cells; over 6.30 in the assay with HT-29 tumor cells; over 6.30 in the assay with Colo205 tumor cells. The pIC50 is over 6.30 in the assay on SK-MEL-3 tumor cells and 5.30 to 6.30 in the assay with SK-MEL-28 tumor cells.

In the case of `CCNc1nc(-c2cc(C)cc(OC)c2)c(-c2ccnc(Nc3ccc(N4CCN(C(=O)COC)CC4)nc3)n2)s1` [Example 37, 4-{2-(Ethylamino)-4-[3-methyl-5-(methyloxy)phenyl]-1,3-thiazol-5-yl}-N-(6-{4-[(methyloxy)acetyl]-1-piperazinyl}-3-pyridinyl)-2-pyrimidinamine], the pIC50 is over 7.00 on B-Raf; under 6.00 against EGFR; under 6.00 on ErbB2; over 6.30 in the assay with A375P tumor cells; over 6.30 with HT-29 tumor cells; over 6.30 in the assay with Colo205 tumor cells. Further, the pIC50 in the assay on SK-MEL-3 tumor cells and in the assay on SK-MEL-28 tumor cells was over 6.30 in each case.

With `Fc1cc(Nc2nccc(-c3sc(N4CCCC4)nc3-c3cccc(Cl)c3)n2)ccc1OCCN1CCCC1` [Example 103], the pIC50 is over 7.00 at B-Raf; 6.00 to 7.00 against EGFR; over 7.00 on ErbB2; 5.30 to 6.30 in the assay on A375P tumor cells; over 6.30 with HT-29 tumor cells; 5.30 to 6.30 in the assay with Colo205 tumor cells. Also, the values for the pIC50 in the assay with SK-MEL-3 tumor cells and in the assay with SK-MEL-28 tumor cells were over 6.30 and 5.30 to 6.30, respectively.

Take `CCNc1nc(-c2cc(C)cc(OC)c2)c(-c2ccnc(Nc3ccc(N4CCOCC4)c(F)c3)n2)s1` [Example 28, 4-{2-(Ethylamino)-4-[3-methyl-5-(methyloxy)phenyl]-1,3-thiazol-5-yl}-N-[3-fluoro-4-(4-morpholinyl)phenyl]-2-pyrimidinamine]: the pIC50 at B-Raf is over 7.00; against EGFR, under 6.00; against ErbB2 it was under 6.00; in the assay with A375P tumor cells, over 6.30; in the assay with HT-29 tumor cells, over 6.30; in the assay on Colo205 tumor cells it was over 6.30. For the same compound, the pIC50 in the assay with SK-MEL-3 tumor cells and with SK-MEL-28 tumor cells was over 6.30 throughout.

For the compound `CCNc1nc(-c2cccc(OC)c2)c(-c2ccnc(Nc3ccc(OC4CCN(CCS(C)(=O)=O)CC4)c(F)c3)n2)s1` [Example 41, 4-{2-(Ethylamino)-4-[3-(methyloxy)phenyl]-1,3-thiazol-5-yl}-N-[3-fluoro-4-({1-[2-(methylsulfonyl)ethyl]-4-piperidinyl}oxy)phenyl]-2-pyrimidinamine], the pIC50 is over 7.00 at B-Raf; 6.00 to 7.00 against EGFR; under 6.00 at ErbB2; over 6.30 in the assay on A375P tumor cells; over 6.30 in the assay on HT-29 tumor cells; over 6.30 with Colo205 tumor cells. In addition, the pIC50 in the assay with SK-MEL-3 tumor cells and with SK-MEL-28 tumor cells was over 6.30 throughout.
